Measurements taken from patent US8093028B2, “Engineered glycosyltransferases with expanded substrate specificity” (Wisconsin Alumni Research Foundation, priority 2007, dated 2012).

Tests used:
Format in all cases: biochemical
[1] = target: T1, WT OleD (Streptomyces antibioticus, UniProt Q53685, P55A/R82V/R83E/T84P); experiment: Rate of glucoside formation with acceptors (RP-HPLC); settings: 200 μM acceptor, 1 mM UDPG
T1 construct: made in house; host or cells: E. coli BL21(DE3)pLysS, plasmid pET28/OleD
Experimental: (§1) Enzyme assays for the determination of glycosyl transfer rate to FIG. 1: 4, Table 1: 27-32 were carried out in a total volume of 500 μl 50 mM Tris-HCl (pH8.0) containing 5 mM MgCl2, 200 μM acceptor, 1 mM UDPG, and 50 μg pure enzyme. Aliquots (100 μl) were removed between 0 and 30 min, at which time product formation was still linear with respect to time, and quenched with 90 μl of an 8:1 mixture of ice-cold MeOH/HCl, and centrifuged at 14,000 rpm for 10 min. Supernatants were analyzed by analytical reverse-phase HPLC with a 250 mm×4.6 mm Gemini […] C18 column (Phenomenex, Torrance, Calif.) using a gradient of 10-90% CH3CN in 0.1% trifluoroacetic acid (TFA)/H2O in 20 min at 1 ml/min, with detection at 254 nm. HPLC peak areas were integrated, and the product concentration calculated as a percent of the total peak area. Product identity was confirmed by co-elution with a commercial standard when available and, in all cases, by LC-MS (FIG. 8).
(§2) Reaction conditions for assay of macrolide glycosylation were identical to that for FIG. 1: 1, except that typically, less enzyme was used (1-10 μg) and reactions were quenched with an equal volume of ice-cold MeOH. Centrifuged reaction mixtures were analyzed by analytical reverse-phase HPLC with a Gemini 5μ C18 column (Phenomenex) using a gradient of 0-90% CH3CN in 50 mM NH3COOH over 30 min at 1 ml/min. Products and acceptor macrolide were detected by evaporative light scattering detection (ELSD) using a drift tube temperature of 105° C. and a nitrogen flow of 2.5 ml/min. All products were characterized by APCI LC-MS on an Agilent 1100 Series LC/MSD quadrapole mass spectrometer connected to a UV detector. Quenched reaction mixtures were analyzed by reverse-phase HPLC with a 10 mm×4.6 mm Zorbax Extend 5μ C18 Analytical Guard Column (Agilent Technologies) using an isocratic gradient of 80% MeOH in 2 min at 1 ml/min, with detection at 254 nm.
(§3) Enzyme reactions were carried out in a total volume of 500 μl 50 mM Tris-HCl (pH8.0) containing 5 mM MgCl2, 200 μM acceptor, 1 mM UDPG, and 50 μg pure enzyme. Aliquots (100 μl) were removed between 0 and 30 min, and quenched with 90 μl of an 8:1 mixture of ice-cold MeOH/HCl for activity towards FIG. 1: 4, Table 1: 27-32, or with 90 μl of ice-cold MeOH for activity towards FIG. 1: 1, and the samples centrifuged at 14,000 rpm for 10 min.
(§4) For determination of activity to FIG. 1: 4, Table 1: 27-32, supernatants were analyzed by analytical reverse-phase HPLC with a Gemini 5μ C18 column (Phenomenex) using a gradient of 10-90% CH3CN in 0.1% trifluoroacetic acid (TFA)/H2O in 20 min, with detection at 254 nm. HPLC peak areas were integrated, and the product concentration calculated as a percent of the total peak area. All products were characterized by LC-MS. Mass spectra were obtained using electrospray ionization on an Agilent 1100 HPLC-MSD SL quadrapole mass spectrometer connected to a UV/Vis diode array detector. For LC-MS analysis, quenched reaction mixtures (see below) were analyzed by analytical reverse-phase HPLC with a 250 mm×4.6 mm Gemini 5μ C18 column (Phenomenex, Torrance, Calif.) using a gradient of 10-90% CH3CN in 0.1% formic acid/H2O in 20 min at 1 ml/min, with detection at 254 nm.
as §2, with “For determination” for “Reaction conditions for assay”, “activity toward” for “macrolide glycosylation were identical to that for”, “centrifuged” for “except that typically, less enzyme was used (1-10 μg) and reactions were quenched with an equal volume of ice-cold MeOH. Centrifuged”, “Compounds FIG. 1: 1” for “Products”, “3” for “acceptor macrolide”

[2] = target: T2, OleD S132F (Streptomyces antibioticus, UniProt Q53685, P55A/R82V/R83E/S132F/T84P); experiment: as above; settings: 200 μM acceptor, 1 mM UDPG
T2 construct: made in house; host or cells: E. coli (site-directed mutant of pET28/OleD)
Experimental: as §1, §2, §3, §4
as §2, with “For determination” for “Reaction conditions for assay”, “activity toward” for “macrolide glycosylation were identical to that for”, “centrifuged” for “except that typically, less enzyme was used (1-10 μg) and reactions were quenched with an equal volume of ice-cold MeOH. Centrifuged”, “Compounds FIG. 1: 1” for “Products”, “3” for “acceptor macrolide”

[3] = target: T3, OleD P67T (Streptomyces antibioticus, UniProt Q53685, P55A/P67T/R82V/R83E/T84P); experiment: as above; settings: 200 μM acceptor, 1 mM UDPG
T3 construct: made in house; host or cells: E. coli (site-directed mutant of pET28/OleD)
Experimental: as §1, §2, §3, §4
as §2, with “For determination” for “Reaction conditions for assay”, “activity toward” for “macrolide glycosylation were identical to that for”, “centrifuged” for “except that typically, less enzyme was used (1-10 μg) and reactions were quenched with an equal volume of ice-cold MeOH. Centrifuged”, “Compounds FIG. 1: 1” for “Products”, “3” for “acceptor macrolide”

[4] = target: T4, OleD A242V (Streptomyces antibioticus, UniProt Q53685, A242V/P55A/R82V/R83E/T84P); experiment: as above; settings: 200 μM acceptor, 1 mM UDPG
T4 construct: made in house; host or cells: E. coli BL21(DE3)pLysS (error-prone PCR clone in pET28a)
Experimental: as §1, §2, §3, §4
as §2, with “For determination” for “Reaction conditions for assay”, “activity toward” for “macrolide glycosylation were identical to that for”, “centrifuged” for “except that typically, less enzyme was used (1-10 μg) and reactions were quenched with an equal volume of ice-cold MeOH. Centrifuged”, “Compounds FIG. 1: 1” for “Products”, “3” for “acceptor macrolide”

[5] = target: T1, WT OleD; settings: named substrate varied, other substrate fixed at 5 mM
Experimental: Determination of kinetic parameters. Enzyme assays were carried out in a total volume of 100 μl 50 mM Tris-HCl (pH 8.0) containing 5 mM MgCl2, and typically 10-50 μg pure enzyme. Kinetic parameters kcat and Km were determined with both (FIG. 9: 1) and (FIG. 12: 5) as variable substrates. […] Each experiment was performed in triplicate. Aliquots ([…]) were removed between 0 and 30 min, at which time product formation was still linear with respect to time, and quenched with 100 μl of ice-cold MeOH, and centrifuged at 10,000 g for 10 min. Supernatants were analyzed by analytical reverse-phase HPLC as described above. The substrate (FIG. 9: 1) and the glucoside product (FIG. 9: 7) HPLC peak areas were integrated, and the product concentration calculated as a percent of the total peak area. Initial velocities were fitted to the Michaelis-Menten equation using Sigma Plot.

SMILES: Cc1cc(=O)oc2cc(O)ccc12 [4-Me-umb (4), 7-hydroxy-4-methylcoumarin]
- Rate of glucoside formation, WT [1]: 2.5 mmols/product formed/min/μg enzyme × 10^3
- Rate of glucoside formation, S132F [2]: 6.3 mmols/product formed/min/μg enzyme × 10^3
- Rate of glucoside formation, P67T [3]: 15.7 mmols/product formed/min/μg enzyme × 10^3
- Rate of glucoside formation, A242V [4]: 5.4 mmols/product formed/min/μg enzyme × 10^3

SMILES: CC(C)=CCc1cc(C(=O)Nc2c(O)c3ccc(O)c(C)c3oc2=O)ccc1O [novobiocic acid (29), novobiocic acid]
- Km [5]: 2 mM
- kcat [5]: 0.041 min⁻¹
- Rate of glucoside formation, WT [1]: 0.24 mmols/product formed/min/μg enzyme × 10^3
- Rate of glucoside formation, S132F [2]: 0.49 mmols/product formed/min/μg enzyme × 10^3
- Rate of glucoside formation, P67T [3]: 0.65 mmols/product formed/min/μg enzyme × 10^3
- Rate of glucoside formation, A242V [4]: 0.33 mmols/product formed/min/μg enzyme × 10^3
